What is called GI50 is the concentration giving 50% growth inhibition.

We go through 18 molecules from paper PMC7770057 (Journal of medicinal chemistry, 2020).

The test system of one data set is HT-29 cells. The data set can be described thus: Antiproliferation. The conditions noted are these: for antiproliferation potency improvement over comparator: HT-29, 3 vs 14, 24 vs 3, 25 vs 22, 26 vs 3, 27 vs 23; for GI50: Homo sapiens, HT-29, 72 h, read-out: HT-29 GI50; for antiproliferation potency compared to compound 28: HT-29 cells.
Another data set has as its system MEK1/2. The data set is described as follows: MEK1/2 protein levels in cells by Western blot. The conditions noted are these: HT-29 cells, 0.3, 1 and 3 μM, 24 h. Background: In western blotting, separated proteins are transferred to a membrane and probed.
Data set [1] in a line: In vivo mouse PK study, single IP injection. The settings on record: mice, single IP 50 mg/kg; no clinical signs or adverse effects observed. Further details: species or system male Swiss Albino mice.

Turning to `Cc1ncsc1-c1ccc([C@H](C)NC(=O)[C@@H]2C[C@@H](O)CN2C(=O)[C@@H](NC(=O)CCCCCCCCCCNCCCONC(=O)c2ccc(F)c(F)c2Nc2ccc(I)cc2F)C(C)(C)C)cc1` [Compound 3], the “antiproliferation potency improvement over comparator” value in the data set with HT-29 cells was determined as 3 fold.
As to `Cc1ncsc1-c1ccc(CNC(=O)[C@@H]2C[C@@H](O)CN2C(=O)[C@@H](NC(=O)CCCCCCCNCCCONC(=O)c2ccc(F)c(F)c2Nc2ccc(I)cc2F)C(C)(C)C)cc1` [Compound 11, (2S,4R)-1-((S)-17-(tert-Butyl)-1-(3,4-difluoro-2-((2-fluoro-4-iodophenyl)amino)phenyl)-1,15-dioxo-3-oxa-2,7,16-triazaoctadecan-18-oyl)-4-hydroxy-N-(4-(4-methylthiazol-5-yl)benzyl)pyrrolidine-2-carboxamide], in the data set with MEK1/2, the “MEK1/2 degradation (Western blot, words)” value was “effectively degraded MEK1 and MEK2 proteins”.
The same measure, in the same setting: the value for `Cc1ncsc1-c1ccc(CNC(=O)[C@@H]2C[C@@H](O)CN2C(=O)[C@@H](NC(=O)CCCCCCCCCNCCCONC(=O)c2ccc(F)c(F)c2Nc2ccc(I)cc2F)C(C)(C)C)cc1` [Compound 13, (2S,4R)-1-((S)-19-(tert-Butyl)-1-(3,4-difluoro-2-((2-fluoro-4-iodophenyl)amino)phenyl)-1,17-dioxo-3-oxa-2,7,18-triazaicosan-20-oyl)-4-hydroxy-N-(4-(4-methylthiazol-5-yl)benzyl)pyrrolidine-2-carboxamide] was “effectively degraded MEK1 and MEK2 proteins”.
Regarding `Cc1ncsc1-c1ccc([C@H](C)NC(=O)[C@@H]2C[C@@H](O)CN2C(=O)[C@@H](NC(=O)CCCCCCCCCCN(C)CCCONC(=O)c2ccc(F)c(F)c2Nc2ccc(I)cc2F)C(C)(C)C)cc1` [Compound 24, (2S,4R)-1-((S)-20-(tert-Butyl)-1-(3,4-difluoro-2-((2-fluoro-4-iodophenyl)amino)phenyl)-7-methyl-1,18-dioxo-3-oxa-2,7,19-triazahenicosan-21-oyl)-4-hydroxy-N-((S)-1-(4-(4-methylthiazol-5-yl)phenyl)ethyl)pyrrolidine-2-carboxamide], the “tolerability” value in data set [1] is given as “very well tolerated”.
With `Cc1ncsc1-c1ccc([C@H](C)NC(=O)[C@@H]2C[C@@H](O)CN2C(=O)[C@@H](NC(=O)CCCCCCCCCNCCCCONC(=O)c2ccc(F)c(F)c2Nc2ccc(I)cc2F)C(C)(C)C)cc1` [Compound 25, (2S,4R)-1-((S)-20-(tert-Butyl)-1-(3,4-difluoro-2-((2-fluoro-4-iodophenyl)amino)phenyl)-1,18-dioxo-3-oxa-2,8,19-triazahenicosan-21-oyl)-4-hydroxy-N-((S)-1-(4-(4-methylthiazol-5-yl)phenyl)ethyl)pyrrolidine-2-carboxamide], the “antiproliferation potency improvement over comparator” value with HT-29 cells was “about 4 fold”.
Consider `Cc1ncsc1-c1ccc([C@H](C)NC(=O)[C@@H]2C[C@@H](O)CN2C(=O)[C@@H](NC(=O)CCCCCCCCCCNCCCCONC(=O)c2ccc(F)c(F)c2Nc2ccc(I)cc2F)C(C)(C)C)cc1` [Compound 26, (2S,4R)-1-((S)-21-(tert-Butyl)-1-(3,4-difluoro-2-((2-fluoro-4-iodophenyl)amino)phenyl)-1,19-dioxo-3-oxa-2,8,20-triazadocosan-22-oyl)-4-hydroxy-N-((S)-1-(4-(4-methylthiazol-5-yl)phenyl)ethyl)pyrrolidine-2-carboxamide], for which the “antiproliferation potency improvement over comparator” value with HT-29 cells is about 3 fold.
Consider `O=C1CCC(N2C(=O)c3cccc(NCCNCCCONC(=O)c4ccc(F)c(F)c4Nc4ccc(I)cc4F)c3C2=O)C(=O)N1` (centres unmarked) [Compound 28, N-(3-((2-((2-(2,6-Dioxopiperidin-3-yl)-1,3-dioxoisoindolin-4-yl)-amino)ethyl)amino)propoxy)-3,4-difluoro-2-((2-fluoro-4-iodophenyl)amino)benzamide], for which, in the data set on HT-29 cells, the GI50 lay in the range of 0.3 to 0.5 µM. For the same molecule, the “MEK1/2 degradation (Western blot, words)” value with MEK1/2 is “did not show obvious MEK1/2 degradation”.
For `O=C1CCC(N2C(=O)c3cccc(NCCCNCCCONC(=O)c4ccc(F)c(F)c4Nc4ccc(I)cc4F)c3C2=O)C(=O)N1` (centres unmarked) [Compound 29, N-(3-((3-((2-(2,6-Dioxopiperidin-3-yl)-1,3-dioxoisoindolin-4-yl)-amino)propyl)amino)propoxy)-3,4-difluoro-2-((2-fluoro-4-iodophenyl)amino)benzamide], the “antiproliferation potency compared to compound 28” value in the data set with HT-29 cells is listed as “did not improve the antiproliferation potency”.
For `O=C1CCC(N2C(=O)c3cccc(NCCCCNCCCONC(=O)c4ccc(F)c(F)c4Nc4ccc(I)cc4F)c3C2=O)C(=O)N1` (centres unmarked) [Compound 30, N-(3-((4-((2-(2,6-Dioxopiperidin-3-yl)-1,3-dioxoisoindolin-4-yl)-amino)butyl)amino)propoxy)-3,4-difluoro-2-((2-fluoro-4-iodophenyl)amino)benzamide], the “antiproliferation potency compared to compound 28” value with HT-29 cells was “did not improve the antiproliferation potency”.
Same read-out and setting: the value for `O=C1CCC(N2C(=O)c3cccc(NCCCCCNCCCONC(=O)c4ccc(F)c(F)c4Nc4ccc(I)cc4F)c3C2=O)C(=O)N1` (centres unmarked) [Compound 31, N-(3-((5-((2-(2,6-Dioxopiperidin-3-yl)-1,3-dioxoisoindolin-4-yl)-amino)pentyl)amino)propoxy)-3,4-difluoro-2-((2-fluoro-4-iodophenyl)amino)benzamide] was “did not improve the antiproliferation potency”; that for `O=C1CCC(N2C(=O)c3cccc(NCCCCCCNCCCONC(=O)c4ccc(F)c(F)c4Nc4ccc(I)cc4F)c3C2=O)C(=O)N1` (centres unmarked) [Compound 32, N-(3-((6-((2-(2,6-Dioxopiperidin-3-yl)-1,3-dioxoisoindolin-4-yl)-amino)hexyl)amino)propoxy)-3,4-difluoro-2-((2-fluoro-4-iodophenyl)amino)benzamide] was “did not improve the antiproliferation potency”; that for `O=C1CCC(N2C(=O)c3cccc(NCCCCCCCNCCCONC(=O)c4ccc(F)c(F)c4Nc4ccc(I)cc4F)c3C2=O)C(=O)N1` (centres unmarked) [Compound 33, N-(3-((7-((2-(2,6-Dioxopiperidin-3-yl)-1,3-dioxoisoindolin-4-yl)-amino)heptyl)amino)propoxy)-3,4-difluoro-2-((2-fluoro-4-iodophenyl)amino)benzamide] was “did not improve the antiproliferation potency”.
Turning to `O=C1CCC(N2C(=O)c3cccc(NCCCCCCCCNCCCONC(=O)c4ccc(F)c(F)c4Nc4ccc(I)cc4F)c3C2=O)C(=O)N1` (centres unmarked) [Compound 34, N-(3-((8-((2-(2,6-Dioxopiperidin-3-yl)-1,3-dioxoisoindolin-4-yl)-amino)octyl)amino)propoxy)-3,4-difluoro-2-((2-fluoro-4-iodophenyl)amino)benzamide], in the data set with HT-29 cells, the “antiproliferation potency compared to compound 28” value is recorded as “did not improve the antiproliferation potency”.
On to `O=C1CCC(N2C(=O)c3ccc(NCCCNCCCONC(=O)c4ccc(F)c(F)c4Nc4ccc(I)cc4F)cc3C2=O)C(=O)N1` (centres unmarked) [Compound 40, N-(3-((3-((2-(2,6-Dioxopiperidin-3-yl)-1,3-dioxoisoindolin-5-yl)amino)propyl)amino)propoxy)-3,4-difluoro-2-((2-fluoro-4-iodophenyl)amino)benzamide], for which the 50% growth inhibitory concentration (GI50) in the data set with HT-29 cells lay within 0.3 to 0.5 µM. Further, the “MEK1/2 degradation (Western blot, words)” value with MEK1/2 was “did not show obvious MEK1/2 degradation”.
On to `O=C1CCC(N2C(=O)c3ccc(NCCCCCNCCCONC(=O)c4ccc(F)c(F)c4Nc4ccc(I)cc4F)cc3C2=O)C(=O)N1` (centres unmarked) [Compound 42, N-(3-((5-((2-(2,6-Dioxopiperidin-3-yl)-1,3-dioxoisoindolin-5-yl)amino)pentyl)amino)propoxy)-3,4-difluoro-2-((2-fluoro-4-iodophenyl)amino)benzamide], for which the 50% growth inhibitory concentration (GI50) in the data set with HT-29 cells was 0.3 to 0.5 µM. Also, the “MEK1/2 degradation (Western blot, words)” value in the data set with MEK1/2 is on record as “significant selectivity at degrading MEK2 over MEK1”.
As to `O=C1CCC(N2C(=O)c3ccc(NCCCCCCCNCCCONC(=O)c4ccc(F)c(F)c4Nc4ccc(I)cc4F)cc3C2=O)C(=O)N1` (centres unmarked) [Compound 44, N-(3-((7-((2-(2,6-Dioxopiperidin-3-yl)-1,3-dioxoisoindolin-5-yl)amino)heptyl)amino)propoxy)-3,4-difluoro-2-((2-fluoro-4-iodophenyl)amino)benzamide], the GI50 in the data set with HT-29 cells was in the range of 0.3 to 0.5 µM. The “MEK1/2 degradation (Western blot, words)” value with MEK1/2 was “significantly degraded both MEK1 and MEK2 proteins”.
Consider `O=C1CCC(N2C(=O)c3ccc(NCCCCCCCCNCCCONC(=O)c4ccc(F)c(F)c4Nc4ccc(I)cc4F)cc3C2=O)C(=O)N1` (centres unmarked) [Compound 45, N-(3-((8-((2-(2,6-Dioxopiperidin-3-yl)-1,3-dioxoisoindolin-5-yl)amino)octyl)amino)propoxy)-3,4-difluoro-2-((2-fluoro-4-iodophenyl)amino)benzamide], for which the “MEK1/2 degradation (Western blot, words)” value in the data set on MEK1/2 was “significantly degraded both MEK1 and MEK2 proteins”.
On to `O=C1CCC(N2C(=O)c3ccc(NCCOCCOCCOCCOCCNCCCONC(=O)c4ccc(F)c(F)c4Nc4ccc(I)cc4F)cc3C2=O)C(=O)N1` (centres unmarked) [Compound 49, N-((1-((2-(2,6-Dioxopiperidin-3-yl)-1,3-dioxoisoindolin-5-yl)amino)-3,6,9,12-tetraoxa-15-azaoctadecan-18-yl)oxy)-3,4-di-fluoro-2-((2-fluoro-4-iodophenyl)amino)benzamide], for which the GI50 in the data set with HT-29 cells fell in the range of 0.3 to 0.5 µM. The “MEK1/2 degradation (Western blot, words)” value in the data set with MEK1/2 was “significantly degraded both MEK1 and MEK2 proteins”.
